Data as given in article PMC8243516, “Inhibition of lysosomal phospholipase A2 predicts drug-induced phospholipidosis” (Journal of Lipid Research, 2021).
Read-outs that look alike come from different tables or passages of the source.

Assays:
[1] = molecular target: T1, recombinant mouse LPLA2 (PLA2G15) (Mus musculus, UniProt Q8VEB4); assay: Transacylase activity of LPLA2 (1-O-acyl-N-acetylsphingosine synthase, cell-free liposome assay); type: biochemical; settings: read-out: LPLA2 IC50
T1 construct: purchased Proteos Inc. (Kalamazoo, MI)
T1 sequence (Q8VEB4 34-412): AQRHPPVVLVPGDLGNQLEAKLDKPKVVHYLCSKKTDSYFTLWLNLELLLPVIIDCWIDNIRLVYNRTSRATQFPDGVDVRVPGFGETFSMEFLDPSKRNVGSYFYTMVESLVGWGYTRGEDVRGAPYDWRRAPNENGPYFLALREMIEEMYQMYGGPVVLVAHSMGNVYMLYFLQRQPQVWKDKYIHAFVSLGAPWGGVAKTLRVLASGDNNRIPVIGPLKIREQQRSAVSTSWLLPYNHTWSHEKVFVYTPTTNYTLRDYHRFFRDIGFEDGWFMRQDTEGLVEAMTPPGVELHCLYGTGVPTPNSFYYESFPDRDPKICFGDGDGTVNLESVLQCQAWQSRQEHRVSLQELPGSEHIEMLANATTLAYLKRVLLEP

phospholipidosis [2] = settings: phospholipidosis reported in vivo, species codes; Refs of Table 1; cited from earlier work
phospholipidosis [3] = settings: phospholipidosis reported in vitro; Refs of Table 1; cited from earlier work
LPLA2 = molecular target: T2, LPLA2 (Mus musculus, UniProt Q8VEB4); assay: LPLA2 thermal stability measurement (SYPRO Orange Tm); type: binding; settings: N=3 ± SD
T2 construct: purchased Proteos Inc. (Kalamazoo, MI)
T2 sequence (Q8VEB4 34-412): T1 sequence (Q8VEB4 34-412)

[4] = ref Pubchem and chEMBL databases; cited from earlier work
MDCK cells [5] = tested on: MDCK cells
MDCK cells [6] = assay: Screening phospholipidosis assay (LipidTOX Red / NucBlue Live fluorescence ratio); settings: LipidTOX Red to NucBlue Live fluorescence ratio, 24 h, 15 μM
[7] = 1-O-acyl N-acetylsphingosine synthase activity, pH 4.5, DOPC/sulfatide liposomes
[8] = LPLA2 dependent 1-O-acyl N-acetylsphingosine synthase activity

SMILES	IC50 [1, 7] [µM]	In Vivo PLD (phospholipidosis [2])	In Vitro PLD (phospholipidosis [3])	(ΔTm)c-(ΔTm)d, difference in melting temperature of LPLA2 alone or in the presence of drug (LPLA2) [°C]	pKa (basic) [4]	Ratio (15 μM) (MDCK cells [5])	IC50 [1, 8] [µM]	Ratio (15 μM) (MDCK cells [6])
CCN(CC)CCCC(C)Nc1ccnc2cc(Cl)ccc12 (stereo not drawn) [Chloroquine, 7-chloro-N-[5-(diethylamino)pentan-2-yl]quinolin-4-amine]	655	H, R, D, M	Yes					
CNCCCN1c2ccccc2CCc2ccccc21 [Desipramine, (3-{2-azatricyclo [9.4.0.0]pentadeca-1(15),3,5,7,11,13-hexaen-2-yl}propyl)(methyl)amine]	25.7	R	Yes	1.60 ± 0.1				
Clc1ccccc1CNC[C@H]1CC[C@H](CNCc2ccccc2Cl)CC1 [ay-9944, trans-1,4-bis(2-chlorobenzylaminomethyl) cyclohexane]	116	R,Ra, M	Yes	0.58 ± 0.4	9.1			
CN[C@H]1CC[C@@H](c2ccc(Cl)c(Cl)c2)c2ccccc21 [Sertraline, (1S,4S)-4-(3,4-dichlorophenyl)-N-methyl-1,2,3,4-tetrahydronaphthalen-1-amine]		Yes	Yes					
CN(C)CCCN1c2ccccc2Sc2ccc(Cl)cc21 [Chlorpromazine, [3-(2-chloro-10H-phenothiazin-10-yl)propyl] dimethylamine]	9.01	R, D	Yes	-2.1 ± 0.2				
CNCCC(Oc1ccc(C(F)(F)F)cc1)c1ccccc1 (stereo not drawn) [Fluoxetine, methyl({3-phenyl-3-[4-(trifluoromethyl)phenoxy]propyl}) amine]		H,R,M	Yes					
CN(C)CCC=C1c2ccccc2CCc2ccccc21 [Amitriptyline, dimethyl(3-{tricyclo[9.4.0.0^3,^8]pentadeca-1(15),3,5,7,11,13-hexaen-2-ylidene}propyl)amine]	14.7	R	Yes	-0.5 ± 0.0				
Cc1ccc2c(Cl)cc(Cl)c(O)c2n1 [5,7 Dichloro-8-hydroxy-2-methyl quinolone]	1180			1.88 ± 0.9		0.29	1180	
CCCCc1oc2ccccc2c1C(=O)c1cc(I)c(OCCN(CC)CC)c(I)c1 [Amiodarone, {2-[4-(2-butyl-1-benzofuran-3-carbonyl)-2,6-diiodophenoxy]ethyl} diethyl amine]		H,R	Yes					
CN(C)CCC=C1c2ccccc2COc2ccccc21 [Doxepin, dimethyl(3-{9-oxatricyclo[9.4.0.0ˆ[1]]pentadeca-1(15),3,5,7,11,13-hexaen-2-ylidene}propyl)amine]		Yes	Yes		9.76			
CN(C)CCC=C1c2ccccc2C=Cc2ccccc21 [Cyclobenzaprine, dimethyl(3-{tricyclo[9.4.0.0^3,^8]pentadeca-1(15),3,5,7,9,11,13-heptaen-2-ylidene}propyl)amine]	6.24	Yes	Yes					
CCN(CC)CCCC(C)Nc1c2ccc(Cl)cc2nc2ccc(OC)cc12.Cl.Cl (stereo not drawn) [Quinacrine, 6-chloro-9-(4-diethylamino-1-methylbutylamino)-2-methoxyacridine dihydrochloride]		R	Yes					
CN(C)CCCC1(c2ccc(F)cc2)OCc2cc(C#N)ccc21 (stereo not drawn) [Citalopram, 1-[3-(dimethylamino)propyl]-1-(4-fluorophenyl)-1,3-dihydro-2-benzofuran-5-carbonitrile]	19.5	Yes	Yes	0				
CN(C)CCCN1c2ccccc2Sc2ccccc21 [Promazine, dimethyl[3-(10H-phenothiazin-10-yl)propyl]amine]	39	R	Yes	-0.10 ± 0.0	9.2			
O=C(NC1CCN(CCc2c[nH]c3ccccc23)CC1)c1ccccc1 [Indoramin, N-{1-[2-(1H-indol-3-yl)ethyl]piperidin-4-yl} benzamide]	124	R	Yes	1.08 ± 0.4	9.59			
CN(C)CCCN1c2ccccc2CCc2ccccc21 [Imipramine, (3-{2-azatricyclo[9.4.0.0^3,^8]pentadeca-1(15),3,5,7,11, 13-hexaen-2-yl}propyl)dimethylamine]	27.6	R	Yes	0	9.2			
CCN(CC)CCOc1ccc(C(O)(Cc2ccc(Cl)cc2)c2ccc(C)cc2)cc1 (stereo not drawn) [Triparanol, 1-(4-(2-diethylaminoethoxy)phenyl)-1-p-tolyl-2-(4-chlorophenyl)ethanol]	7.8	R, M, Ha	Yes	0	13.44			
C[C@H]1[C@H]2CC[C@H]3[C@@H]4CC=C5C[C@@H](N(C)C)CC[C@]5(C)[C@H]4CC[C@]23CN1C [Conessin]				0.20 ± 01		1.08	31.3	
NC[C@H]1O[C@H](O[C@H]2[C@H](O)[C@@H](O[C@H]3O[C@H](CO)[C@@H](O)[C@H](N)[C@H]3O)[C@H](N)C[C@@H]2N)[C@H](N)C[C@@H]1O [Tobramycin, O-[3-amino-3-deoxy-α-D-glucopyranosyl-(1→6)]-O-[2,6-diamino-2,3,6-trideoxy-α-D-ribohexopyranosyl-(1→4)]-2-deoxy-D-streptamine]	33	R,H	Yes	0.27 ± 0.1	9.8			
OC1(c2ccc(Cl)c(C(F)(F)F)c2)CCN(CCCC(c2ccc(F)cc2)c2ccc(F)cc2)CC1 [Penfluridol, 1-[4,4-bis(4-fluorophenyl)butyl]-4-[4-chloro-3-(trifluoromethyl)phenyl]piperidin-4-ol]	9.09	Yes		0.11 ± 0.0	8.96			0.55
C1CCC(C(CC2CCCCN2)C2CCCCC2)CC1 (stereo not drawn) [Perhexiline, 2-(2,2-dicyclohexylethyl) piperidine]	11.7	H,R,M	Yes	-0.12 ± 0.0	10.58			
CC1(C)[C@@H](O)CC[C@]2(C)[C@H]3C(=O)C=C4[C@@H]5C[C@@](C)(C(=O)O)CC[C@]5(C)CC[C@@]4(C)[C@]3(C)CC[C@@H]12 [18 Beta-glycyrrhetinic acid]				1.88 ± 0.6		0.4	2430	
CC(CN1c2ccccc2Sc2ccccc21)N(C)C (stereo not drawn) [Promethazine, dimethyl[1-(10H-phenothiazin-10-yl)propan-2-yl] amine]	40.3	Yes	Yes	1.45 ± 0.5				
